Assay results: US20260185169A1, “MOLECULAR SIGNATURES TO PREDICT LONG-TERM LIVER FIBROSIS PROGRESSION” (THE BOARD OF REGENTS OF THE UNIVERSITY OF TEXAS SYSTEM, priority 2022, published 2026)

Experiments:
[1] = test system: NASH patients with F1 to F3 fibrosis; assay: Histological fibrosis change after 1-year treatment in phase IIb CENTAUR trial; assay type: in vivo, human; conditions: cenicriviroc arm n=9, 1-year treatment
[2] = test system: NASH patients with F1 to F3 fibrosis; conditions: phase IIb CENTAUR trial, 1-year treatment; cited from earlier work

SMILES: CCCCOCCOc1ccc(-c2ccc3c(c2)/C=C(/C(=O)Nc2ccc([S@@+]([O-])Cc4cncn4CCC)cc2)CCCN3CC(C)C)cc1 [Cenicriviroc]
- patients with improvement of fibrosis in the year 1 biopsy [1]: 4 patients
- histological fibrosis [2]: improved histological fibrosis
